Here are results for twelve molecules from patent US11584775B2, “C4-modified oleanolic acid derivatives for inhibition of IL-17 and other uses” (REATA PHARMACEUTICALS, INC., priority 2015, dated 2023).

Usually IC50 stands for the point on the concentration scale where inhibition reaches its midpoint. Low readings indicate higher potency, high ones lower potency.

Test [1] concerns IFNγ-induced Nitric Oxide production. As to the kind of experiment: Nitric oxide production assay in RAW 264.7 mouse macrophages. Conditions: RAW264.7, suppression of IFNγ-induced NO production normalized to cell viability (WST-1), RAW 264.7, 24 hours IFNγ. Type of test: cell-based. Summed up:
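Cells pre-treated 2 h with compound (0.4-200 nM or 2-1000 nM) in RPMI 1640 + 0.5% FBS, then stimulated with recombinant mouse IFNγ for 24 h at 37 °C. Nitrite measured by Griess reagent, viability by WST-1; IC50 from NO suppression normalized to viability and to DMSO/IFNγ controls.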

In a further test the test system is hIL17. Kind of test: IL-17 release from differentiated primary human T-cells (IL-17A HTRF assay). Type of test: cell-based. Particulars: inhibition of IL-17A levels; primary human CD4+ T cells differentiated into Th17 cells, 46-hour incubation. Summed up:
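Cryopreserved primary human CD4+ T cells were activated with anti-CD3/CD28 beads and driven to Th17 with TGF-β, IL-6, IL-23 and IL-1β in the presence of compound (2-500 nM or 4-1000 nM) for 46 h at 37° C. Supernatant IL-17A was quantified by HTRF against a standard curve and normalized to DMSO. IC50s came from variable-slope fits, with viability read by CyQuant.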
Background: In TR-FRET formats the signal depends on donor and acceptor labels being close together.

The target of the next test is T1, human RORγ (Homo sapiens, UniProt P51449).
T1 sequence (P51449 269-508 limits assumed): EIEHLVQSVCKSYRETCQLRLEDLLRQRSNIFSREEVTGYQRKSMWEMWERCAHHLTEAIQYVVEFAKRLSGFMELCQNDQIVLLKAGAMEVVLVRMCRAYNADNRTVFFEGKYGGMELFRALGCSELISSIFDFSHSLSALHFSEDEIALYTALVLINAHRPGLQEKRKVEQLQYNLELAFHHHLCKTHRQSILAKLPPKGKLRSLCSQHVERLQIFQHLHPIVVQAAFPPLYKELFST
As to the kind of experiment: RORγ assay (GAL4-RORγ hybrid luciferase reporter, inverse-agonist activity). In kind it is cell-based. Particulars: GAL4-RORγ hybrid reporter cells, 23 hours. The method, boiled down:
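Human cell line expressing GAL4-DBD/RORγ hybrid with UAS-driven luciferase, treated in triplicate with compound (0.4–200 nM or 2–1000 nM) for 23 h at 37 °C. Luminescence normalized to DMSO; viability measured in parallel by multiplex assay. IC50 for RORγ and viability by variable-slope nonlinear regression.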
Background: A reporter such as luciferase makes a cellular process visible.

The subject of another test is NRF2. As to the kind of experiment: AREc32 luciferase reporter assay. In kind it is cell-based, human. Conditions: EC2×: concentration required to increase GST ARE Luciferase reporter activity by 2-fold; AREc32 cells, 19 hours. Summed up: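 AREc32 cells (MCF-7 stably carrying eight rat GSTA2 ARE copies driving firefly luciferase) treated 19 h with compound (0.4–200 nM or 2–1000 nM), triplicate. Luminescence normalized to DMSO as fold-induction; variable-slope fit capped at 50-fold; EC2× = concentration giving 2-fold induction.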

For `COC(=O)N[C@]12CCC(C)(C)C[C@H]1[C@H]1C(=O)C=C3[C@@]4(C)C=C(C#N)C(=O)[C@@](C)(CO)[C@@H]4CC[C@@]3(C)[C@]1(C)CC2` [Compound T40, methyl ((4aS,6aR,6bS,8aR,9R,12aS,14aR,14bS)-11-cyano-9-(hydroxymethyl)-2,2,6a,6b,9,12a-hexamethyl-10,14-dioxo-1,3,4,5,6,6a,6b,7,8,8a,9,10,12a,14,14a,14b-hexadecahydropicen-4a(2H)-yl)carbamate], the IC50 in test [1] came out at 24.6 nM; with hIL17 it was 37 nM; on human RORγ it was 698 nM. For the same molecule, in the test on NRF2, the “EC2x: concentration giving 2-fold induction of ARE luciferase reporter” value is reported as 130 nM.
In the case of `COC(=O)N[C@]12CCC(C)(C)C[C@H]1[C@H]1C(=O)C=C3[C@@]4(C)C=C(C#N)C(=O)[C@@](C)(COC(C)=O)[C@@H]4CC[C@@]3(C)[C@]1(C)CC2` [Compound T41, ((4R,4aR,6aS,6bR,8aS,12aS,12bR,14bS)-2-cyano-8a-((methoxycarbonyl)amino)-4,6a,6b, 11,11,11,14b-hexamethyl-3,13-dioxo-3,4,4a,5,6,6a,6b,7,8,8a,9,10,11,12,12a,12b,13,14b-octadecahydropicen-4-yl)methyl acetate], the IC50 in test [1] was found to be 151 nM; with hIL17, 35 nM; on human RORγ, 135 nM. In addition, in the test with NRF2, the “EC2x: concentration giving 2-fold induction of ARE luciferase reporter” value was 330 nM.
Consider `Cc1nnc([C@]23CCC(C)(C)C[C@H]2[C@H]2C(=O)C=C4[C@@]5(C)C=C(C#N)C(=O)[C@@](C)(CO)[C@@H]5CC[C@@]4(C)[C@]2(C)CC3)o1` [Compound T42, (4R,4aR,6aS,6bR,8aS,12aS,12bR,14bS)-4-(hydroxymethyl)-4,6a,6b, 11,11,14b-hexamethyl-8a-(5-methyl-1,3,4-oxadiazol-2-yl)-3,13-dioxo-3,4,4a,5,6,6a,6b,7,8,8a,9,10,11,12,12a,12b,13,14b-octadecahydropicene-2-carbonitrile], for which the IC50 in test [1] came to 10.4 nM; in the test on hIL17, 101 nM; at human RORγ, 389 nM. For the same molecule, the “EC2x: concentration giving 2-fold induction of ARE luciferase reporter” value in the test on NRF2 is given as 97 nM.
With `CC(=O)OC[C@]1(C)C(=O)C(C#N)=C[C@]2(C)C3=CC(=O)[C@@H]4[C@@H]5CC(C)(C)CC[C@]5(c5nnc(C)o5)CC[C@@]4(C)[C@]3(C)CC[C@H]21` [Compound T43, ((4R,4aR,6aS,6bR,8aS,12aS,12bR,14bS)-2-cyano-4,6a,6b, 11,11,14b-hexamethyl-8a-(5-methyl-1,3,4-oxadiazol-2-yl)-3,13-dioxo-3,4,4a,5,6,6a,6b,7,8,8a,9,10,11,12,12a,12b,13,14b-octadecahydropicen-4-yl)methyl acetate], the concentration for half-maximal inhibition (IC50) is 110 nM in test [1], 46 nM in the test on hIL17 and 146 nM on human RORγ. Further, in the test with NRF2, the “EC2x: concentration giving 2-fold induction of ARE luciferase reporter” value came to 369 nM.
Turning to `Cc1nnc([C@]23CCC(C)(C)C[C@H]2[C@H]2C(=O)C=C4[C@@]5(C)C=C(C#N)C(=O)[C@@](C)(O)[C@@H]5CC[C@@]4(C)[C@]2(C)CC3)o1` [Compound T44, (4S,4aR,6aS,6bR,8aS,12aS,12bR,14bS)-4-hydroxy-4,6a,6b, 11,11,14b-hexamethyl-8a-(5-methyl-1,3,4-oxadiazol-2-yl)-3,13-dioxo-3,4,4a,5,6,6a,6b,7,8,8a,9,10,11,12,12a,12b,13,14b-octadecahydropicene-2-carbonitrile], the IC50 stood at 72.8 nM in test [1], 50 nM in the test on hIL17 and 236 nM on human RORγ. Moreover, in the test with NRF2, the “EC2x: concentration giving 2-fold induction of ARE luciferase reporter” value is listed as 156 nM.
Regarding `Cc1noc([C@]23CCC(C)(C)C[C@H]2[C@H]2C(=O)C=C4[C@@]5(C)C=C(C#N)C(=O)[C@@](C)(CO)[C@@H]5CC[C@@]4(C)[C@]2(C)CC3)n1` [Compound T45, (4R,4aR,6aS,6bR,8aS,12aS,12bR,14bS)-4-(hydroxymethyl)-4,6a,6b, 11,11,14b-hexamethyl-8a-(3-methyl-1,2,4-oxadiazol-5-yl)-3,13-dioxo-3,4,4a,5,6,6a,6b,7,8,8a,9,10,11,12,12a,12b,13,14b-octadecahydropicene-2-carbonitrile], the results for the IC50 (in test [1]; in the test with hIL17; on human RORγ) were 6.9 nM, 17 nM and 165 nM, respectively. For the same molecule, the “EC2x: concentration giving 2-fold induction of ARE luciferase reporter” value in the test on NRF2 is recorded as 47 nM.
On to `CC(=O)OC[C@]1(C)C(=O)C(C#N)=C[C@]2(C)C3=CC(=O)[C@@H]4[C@@H]5CC(C)(C)CC[C@]5(c5nc(C)no5)CC[C@@]4(C)[C@]3(C)CC[C@H]21` [Compound T46, ((4R,4aR,6aS,6bR,8aS,12aS,12bR,14bS)-2-cyano-4,6a,6b, 11,11,14b-hexamethyl-8a-(3-methyl-1,2,4-oxadiazol-5-yl)-3,13-dioxo-3,4,4a,5,6,6a,6b,7,8,8a,9,10,11,12,12a,12b,13,14b-octadecahydropicen-4-yl)methyl acetate], for which the IC50 was determined as 101 nM in test [1], 13 nM in the test with hIL17 and 115 nM on human RORγ. For the same molecule, the “EC2x: concentration giving 2-fold induction of ARE luciferase reporter” value in the test with NRF2 came out at 366 nM.
Regarding `Cc1noc([C@]23CCC(C)(C)C[C@H]2[C@H]2C(=O)C=C4[C@@]5(C)C=C(C#N)C(=O)[C@@](C)(O)[C@@H]5CC[C@@]4(C)[C@]2(C)CC3)n1` [Compound T47, (4S,4aR,6aS,6bR,8aS,12aS,12bR,14bS)-4-hydroxy-4,6a,6b, 11,11,14b-hexamethyl-8a-(3-methyl-1,2,4-oxadiazol-5-yl)-3,13-dioxo-3,4,4a,5,6,6a,6b,7,8,8a,9,10,11,12,12a,12b,13,14b-octadecahydropicene-2-carbonitrile], the results for the IC50 (in test [1]; with hIL17; at human RORγ) were 35.8 nM, 17 nM and 139 nM, respectively. For the same molecule, the “EC2x: concentration giving 2-fold induction of ARE luciferase reporter” value in the test on NRF2 is 79 nM.
Take `C[C@H](O)[C@]1(C)C(=O)C(C#N)=C[C@]2(C)C3=CC(=O)[C@]45OC(=O)[C@@]6(CCC(C)(C)C[C@H]64)CC[C@@]5(C)[C@]3(C)CC[C@@H]12` [Compound T48, (4R,4aR,6aR,6bS,8aS,12aR,12bS,14bS)-4-((S)-1-hydroxyethyl)-4,6a,6b, 11,11,14b-hexamethyl-3,13,16-trioxo-4,4a,5,6,6a,6b,7,8,10,11,12,12a,13,14b-tetradecahydro-3H,9H-12b,8a-(epoxymethano)picene-2-carbonitrile]: the IC50 in test [1] stood at 1.2 nM; in the test on hIL17, 13 nM; at human RORγ, 162 nM. Further, the “EC2x: concentration giving 2-fold induction of ARE luciferase reporter” value in the test on NRF2 was determined as 3 nM.
In the case of `Cc1noc([C@]23CCC(C)(C)C[C@H]2[C@H]2C(=O)C=C4[C@@]5(C)[C@H]6O[C@@]6(C#N)C(=O)[C@@](C)(O)[C@@H]5CC[C@@]4(C)[C@]2(C)CC3)n1` [Compound T49, (1 aR,3S,3aR,5aS,5bR,7aS,11aS,11bR,13bS,13cR)-3-hydroxy-3,5a,5b, 10,10,13b-hexamethyl-7a-(3-methyl-1,2,4-oxadiazol-5-yl)-2,12-dioxo-3,3a,4,5,5a,5b,6,7,7a,8,9,10,11,11a,11b,12,13b,13c-octadecahydropiceno[1,2-b]oxirene-1a(2H)-carbonitrile], the IC50 in test [1] was found to be 37.5 nM; in the test on hIL17, 18 nM; on human RORγ, 608 nM. Also, the “EC2x: concentration giving 2-fold induction of ARE luciferase reporter” value with NRF2 stood at 244 nM.
For the molecule `CC1(C)CC[C@@]23CC[C@@]4(C)[C@]5(C)CC[C@@H]6[C@@](C)(C5=CC(=O)[C@]4(OC2=O)[C@@H]3C1)[C@H]1O[C@@]1(C#N)C(=O)[C@@]6(C)O` [Compound T50, (1aR,3S,3aR,5aR,5bS,7aS,11aR,11bS,13bS,13cR)-3-hydroxy-3,5a,5b,10,10,13b-hexamethyl-2,12,15-trioxo-3,3a,4,5,5a,6,7,9,10,11,11a,12,13b,13c-tetradecahydro-2H, 8H-11b,7a-(epoxymethano)piceno[1,2-b]oxirene-1a(5bH)-carbonitrile], the results for the 50% inhibitory concentration (IC50) (in test [1]; with hIL17; at human RORγ) were 65.4 nM, 11 nM and 1040 nM, respectively. Further, the “EC2x: concentration giving 2-fold induction of ARE luciferase reporter” value with NRF2 was determined as 162 nM.
In the case of `CC1(C)CC[C@]2(NC(=O)C(C)(F)F)CC[C@]3(C)[C@H](C(=O)C=C4[C@@]5(C)[C@H]6O[C@@]6(C#N)C(=O)[C@@](C)(O)[C@@H]5CC[C@]43C)[C@@H]2C1` [Compound T51, N-((1aR,3S,3aR,5aS,5bR,7aS,11aS,11bR,13bS,13cR)-1a-cyano-3-hydroxy-3,5a,5b,10,10,13b-hexamethyl-2,12-dioxo-1a,3,3a,4,5,5a,5b,6,7,8,9,10,11,11a,11b,12,13b,13c-octadecahydropiceno[1,2-b]oxiren-7a(2H)-yl)-2,2-difluoropropanamide], the concentration for half-maximal inhibition (IC50) is 119 nM in test [1], 139 nM in the test on hIL17 and 1690 nM on human RORγ. The “EC2x: concentration giving 2-fold induction of ARE luciferase reporter” value in the test with NRF2 was 840 nM.
